# Results published in the supplement of paper PMC10307832.
# Legend:
# Assay in all cases: relative viability (nuclei count vs DMSO), 5 days (fraction); higher = more cells survive
# Adavosertib + Pemetrexed = compound: C=CCn1c(=O)c2cnc(Nc3ccc(N4CCN(C)CC4)cc3)nc2n1-c1cccc(C(C)(C)O)n1 [Adavosertib] + Nc1nc2[nH]cc(CCc3ccc(C(=O)N[C@@H](CCC(=O)O)C(=O)O)cc3)c2c(=O)[nH]1 [Pemetrexed] (partner 0.2 µM)
# How it was run: (§1)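 After 5 days of treatment, lung cancer cells in 1536-well plates were fixed and stained in a single step (final 0.05% Triton X-100, 1% formaldehyde, 1 ug/ml Hoechst) and their nuclei counted on 4× images. Treatment had been applied by pin tool the day after seeding as one drug alone or as a fixed anchor-drug dose with five library-drug doses (not always all listed) in √10 steps. Relative viability is the nuclei count of treated wells divided by that of vehicle wells, and values are medians of duplicate plates.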
# Adavosertib + Dasatinib = compound: C=CCn1c(=O)c2cnc(Nc3ccc(N4CCN(C)CC4)cc3)nc2n1-c1cccc(C(C)(C)O)n1 [Adavosertib] + Cc1nc(Nc2ncc(C(=O)Nc3c(C)cccc3Cl)s2)cc(N2CCN(CCO)CC2)n1 [Dasatinib] (partner 0.075 µM)
# How it was run: as §1
# Adavosertib + Linsitinib = compound: C=CCn1c(=O)c2cnc(Nc3ccc(N4CCN(C)CC4)cc3)nc2n1-c1cccc(C(C)(C)O)n1 [Adavosertib] + C[C@]1(O)C[C@@H](c2nc(-c3ccc4ccc(-c5ccccc5)nc4c3)c3c(N)nccn32)C1 [Linsitinib] (partner 1 µM)
# How it was run: as §1
# Nelarabine + Lapatinib = compound: COc1nc(N)nc2c1ncn2[C@@H]1O[C@H](CO)[C@@H](O)[C@@H]1O [Nelarabine] + CS(=O)(=O)CCNCc1ccc(-c2ccc3ncnc(Nc4ccc(OCc5cccc(F)c5)c(Cl)c4)c3c2)o1 [Lapatinib] (partner 2 µM)
# How it was run: as §1
Cell Line,relative viability (Adavosertib + Pemetrexed; first compound 0.01 µM),relative viability (Adavosertib + Pemetrexed; first compound 0.03162 µM),relative viability (Adavosertib + Pemetrexed; first compound 0.1 µM),relative viability (Adavosertib + Pemetrexed; first compound 0.3162 µM),relative viability (Adavosertib + Dasatinib; first compound 0.01 µM),relative viability (Adavosertib + Dasatinib; first compound 0.03162 µM),relative viability (Adavosertib + Dasatinib; first compound 0.1 µM),relative viability (Adavosertib + Dasatinib; first compound 0.3162 µM),relative viability (Adavosertib + Linsitinib; first compound 0.01 µM),relative viability (Adavosertib + Linsitinib; first compound 0.03162 µM),relative viability (Adavosertib + Linsitinib; first compound 0.1 µM),relative viability (Adavosertib + Linsitinib; first compound 0.3162 µM),relative viability (Nelarabine + Lapatinib; first compound 0.01 µM),relative viability (Nelarabine + Lapatinib; first compound 0.03162 µM),relative viability (Nelarabine + Lapatinib; first compound 0.1 µM),relative viability (Nelarabine + Lapatinib; first compound 0.3162 µM),relative viability (Nelarabine + Lapatinib; first compound 1 µM)
LXF-289,0.914,0.931,0.856,0.722,0.309,0.22,0.213,0.243,0.936,0.97,0.944,1.02,0.97,0.883,0.884,0.941,0.903
NCI-H2085,0.881,0.86,0.901,0.998,0.257,0.266,0.229,0.279,0.872,0.996,0.988,0.827,0.889,0.804,0.74,0.754,0.835
A-427,0.97,0.905,0.892,0.893,0.715,0.709,0.805,0.425,1.09,1.05,1.05,1.03,1.15,0.973,1.14,1.1,1.11
LC-2-ad,0.288,0.276,0.302,0.277,0.539,0.654,0.582,0.493,0.773,0.883,0.781,0.729,1.28,1.03,0.991,1.06,1.08
LU99A,0.156,0.165,0.144,0.115,0.472,0.51,0.532,0.355,0.575,0.656,0.499,0.417,1.15,1.04,1.19,1.12,1.1
201T,0.319,0.343,0.325,0.281,0.544,0.524,0.568,0.463,1.04,0.957,0.941,1.08,1.05,1.02,0.999,1.09,1.1
NCI-H650,0.892,1.07,0.952,0.774,0.37,0.494,0.5,0.465,0.785,0.926,0.87,0.712,0.97,0.842,0.929,1.07,0.887
NCI-H1563,0.677,0.903,0.713,0.808,0.462,0.432,0.437,0.466,1.17,1.24,1.18,1.2,0.944,1.02,0.985,0.998,1.03
NCI-H2023,0.114,0.163,0.164,0.114,0.584,0.583,0.471,0.226,0.638,0.742,0.505,0.392,1.48,1.15,0.642,0.812,0.948
LK-2,0.266,0.238,0.357,0.215,0.286,0.229,0.291,0.359,0.761,0.742,0.522,0.424,1.23,–,1.03,1.02,1.05
BEN,0.739,0.76,0.816,0.815,0.294,0.295,0.297,0.302,0.97,0.886,0.921,1.06,0.905,0.69,0.941,0.684,0.778
EPLC-272H,0.33,0.258,0.175,0.116,0.312,0.339,0.363,0.205,1.12,1.14,0.958,0.878,1.12,0.798,0.976,1.02,0.86
NCI-H1975,0.263,0.268,0.209,0.213,0.383,0.3,0.268,0.232,1,0.951,0.891,0.522,1.27,0.958,0.92,1.11,0.982
HCC-827,0.283,0.223,0.284,0.245,0.282,0.284,0.264,0.282,0.985,0.974,1.03,0.991,0.196,0.205,0.169,0.179,0.194
LCLC-97TM1,0.214,0.171,0.17,0.159,0.881,0.675,0.886,0.801,–,0.19,0.17,0.169,0.854,0.778,0.667,0.818,1.14
NCI-H2126,0.615,0.66,0.695,0.643,0.602,0.619,0.564,0.561,0.695,0.712,0.703,0.722,0.91,0.763,0.72,0.754,0.797
PC-14,0.151,0.121,0.115,0.0767,0.281,0.236,0.23,0.057,0.915,0.957,0.942,0.575,0.327,0.342,0.307,0.328,0.353
NCI-H1355,0.984,1.03,0.965,0.808,0.673,0.643,0.696,0.569,0.892,0.701,0.872,0.808,1.14,0.7,0.929,0.993,1.07

Cell Line,relative viability (Adavosertib + Pemetrexed; first compound 0.01 µM),relative viability (Adavosertib + Pemetrexed; first compound 0.03162 µM),relative viability (Adavosertib + Pemetrexed; first compound 0.1 µM),relative viability (Adavosertib + Pemetrexed; first compound 0.3162 µM),relative viability (Adavosertib + Dasatinib; first compound 0.01 µM),relative viability (Adavosertib + Dasatinib; first compound 0.03162 µM),relative viability (Adavosertib + Dasatinib; first compound 0.1 µM),relative viability (Adavosertib + Dasatinib; first compound 0.3162 µM),relative viability (Adavosertib + Linsitinib; first compound 0.01 µM),relative viability (Adavosertib + Linsitinib; first compound 0.03162 µM),relative viability (Adavosertib + Linsitinib; first compound 0.1 µM),relative viability (Adavosertib + Linsitinib; first compound 0.3162 µM),relative viability (Nelarabine + Lapatinib; first compound 0.01 µM),relative viability (Nelarabine + Lapatinib; first compound 0.03162 µM),relative viability (Nelarabine + Lapatinib; first compound 0.1 µM),relative viability (Nelarabine + Lapatinib; first compound 0.3162 µM),relative viability (Nelarabine + Lapatinib; first compound 1 µM)
NCI-H460,0.0616,0.0693,0.0573,0.0705,0.477,0.519,0.429,0.359,0.971,0.777,0.594,0.285,–,1.76,1.84,1.62,1.27
NCI-H1651,0.564,0.574,0.628,0.408,0.479,0.409,0.396,0.282,1.03,1.02,0.98,0.783,1.1,1.02,1.05,0.881,0.854
NCI-H1734,0.409,0.39,0.325,0.323,0.53,0.469,0.464,0.318,0.992,0.953,0.916,0.938,1.23,1.22,1.09,1.08,1.06
NCI-H661,0.915,0.834,0.74,0.415,0.864,0.846,0.75,0.347,0.609,0.648,0.463,0.417,0.497,0.644,0.556,0.502,0.509
H3255,0.553,0.59,0.563,0.536,0.347,0.382,0.352,0.352,0.967,1.01,0.993,0.957,0.248,0.267,0.226,0.235,0.201
NCI-H596,0.497,0.515,0.471,0.423,0.53,0.656,0.66,0.541,1.04,1.01,1.01,1.11,1.15,1.13,1.27,0.892,1.07
NCI-H1437,0.328,0.281,0.309,0.229,0.404,0.323,0.375,0.43,1.08,1.11,1.12,1.09,1.06,0.83,0.815,0.839,0.79
NCI-H2228,–,0.331,0.361,0.2,0.536,0.492,0.475,0.265,0.629,0.623,0.76,0.395,1.1,1.1,–,0.974,0.977
CAL-12T,1.15,1.25,1.02,0.682,0.501,0.416,0.438,0.222,0.822,0.818,0.939,0.944,0.699,0.743,0.611,0.685,0.688
NCI-H1792,0.858,0.756,0.718,0.71,–,0.753,0.942,0.865,0.601,0.519,0.493,0.559,0.913,–,1.45,1.03,0.967
NCI-H2347,0.463,0.422,0.437,0.439,0.378,0.304,0.267,0.258,0.944,0.93,1.09,0.914,0.977,0.904,0.94,0.954,0.992
NCI-H3122,0.211,0.199,0.188,0.173,0.816,0.849,0.922,0.893,1.08,0.954,1.06,1.06,1.08,0.891,–,1.08,1.01
NCI-H1793,0.808,0.913,0.756,0.782,0.392,0.308,0.439,0.36,0.822,0.765,0.915,0.869,0.827,0.945,0.83,0.933,0.727
NCI-H358,0.227,0.189,0.166,0.157,0.159,0.144,0.149,0.139,0.747,0.675,0.547,0.374,0.518,0.436,0.421,0.405,0.431
HOP-62,0.311,0.285,0.283,0.224,0.693,0.678,0.644,0.661,0.981,1.02,1.09,1.03,1.35,1.08,1.18,1.11,1
NCI-H1944,0.621,0.582,0.428,0.27,0.205,0.201,0.218,0.199,1.17,1.13,1.23,1,0.895,0.782,0.841,0.799,0.845
NCI-H838,0.263,0.22,0.172,0.168,0.291,0.326,0.31,0.285,1.01,1.05,1,1.09,1.38,1.07,0.934,1.16,1.14
